Test results published in ChEMBL document CHEMBL3091341, “Chlorophenylpiperazine analogues as high affinity dopamine transporter ligands” (Bioorg Med Chem Lett, 2013).

Tests used:
D(2) dopamine receptor = D(2) dopamine receptor (Rattus norvegicus, UniProt P61169); assay: Displacement of [3H](-)-sulpiride from dopamine D2 receptor in rat brain after 120 mins by liquid scintillation counting analysis; assay type: tissue-based
[1] = molecular target: Sodium-dependent dopamine transporter (Rattus norvegicus, UniProt P23977); assay: Displacement of [3H]WIN 35428 from dopamine transporter in rat striatum after 120 mins by liquid scintillation counting analysis
Sequence of Sodium-dependent dopamine transporter (P23977 whole entry): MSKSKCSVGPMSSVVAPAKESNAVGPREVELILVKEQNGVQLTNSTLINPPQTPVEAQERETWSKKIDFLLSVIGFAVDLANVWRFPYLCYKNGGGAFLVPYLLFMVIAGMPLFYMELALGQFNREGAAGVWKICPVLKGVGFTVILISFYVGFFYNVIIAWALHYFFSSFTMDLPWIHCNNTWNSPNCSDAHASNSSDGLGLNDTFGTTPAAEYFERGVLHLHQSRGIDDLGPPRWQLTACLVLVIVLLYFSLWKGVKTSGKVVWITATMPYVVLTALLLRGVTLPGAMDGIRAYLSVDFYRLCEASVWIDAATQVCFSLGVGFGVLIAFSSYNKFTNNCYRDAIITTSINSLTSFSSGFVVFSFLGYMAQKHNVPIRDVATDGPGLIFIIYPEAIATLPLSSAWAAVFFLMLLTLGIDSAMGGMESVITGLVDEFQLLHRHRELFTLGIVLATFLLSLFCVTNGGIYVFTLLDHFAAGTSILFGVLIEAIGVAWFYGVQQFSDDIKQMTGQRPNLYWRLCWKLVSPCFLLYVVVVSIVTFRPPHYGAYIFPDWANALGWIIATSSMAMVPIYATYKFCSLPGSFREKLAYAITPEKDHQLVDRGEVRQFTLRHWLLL

[2] = Displacement of [3H]nisoxetine from norepinephrine transporter in rat cerebral cortex after 120 mins by liquid scintillation counting analysis; assay type: tissue-based
Rattus norvegicus [3] = organism: Rattus norvegicus; assay: Selectivity ratio of Ki for rat brain sigma1 receptor to Ki for rat striatum dopamine transporter; assay type: tissue-based
[4] = Binding affinity to rat opioid receptor after 120 mins by radioligand displacement assay
[5] = molecular target: Sodium-dependent serotonin transporter (Rattus norvegicus, UniProt P31652); assay: Displacement of [3H]paroxetine from serotonin transporter in rat brainstem after 120 mins by liquid scintillation counting analysis; assay type: tissue-based
Sequence of Sodium-dependent serotonin transporter (P31652 whole entry): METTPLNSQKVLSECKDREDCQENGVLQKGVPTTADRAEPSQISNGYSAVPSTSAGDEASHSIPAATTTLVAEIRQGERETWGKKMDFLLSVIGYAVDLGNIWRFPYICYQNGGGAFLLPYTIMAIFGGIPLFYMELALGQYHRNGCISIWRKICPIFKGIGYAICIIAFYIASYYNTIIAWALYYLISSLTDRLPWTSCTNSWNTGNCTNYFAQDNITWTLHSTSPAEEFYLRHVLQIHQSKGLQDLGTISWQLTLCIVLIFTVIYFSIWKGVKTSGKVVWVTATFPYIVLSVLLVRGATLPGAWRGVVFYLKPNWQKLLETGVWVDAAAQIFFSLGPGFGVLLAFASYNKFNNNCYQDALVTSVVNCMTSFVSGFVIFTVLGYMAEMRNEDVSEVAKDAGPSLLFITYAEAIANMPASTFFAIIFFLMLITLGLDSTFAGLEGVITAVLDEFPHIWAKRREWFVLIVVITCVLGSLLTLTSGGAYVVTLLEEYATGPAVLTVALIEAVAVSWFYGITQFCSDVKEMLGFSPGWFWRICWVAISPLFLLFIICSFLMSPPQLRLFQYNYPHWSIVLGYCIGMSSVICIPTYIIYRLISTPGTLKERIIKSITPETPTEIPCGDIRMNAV

Rattus norvegicus [6] = organism: Rattus norvegicus; assay: Selectivity ratio of Ki for rat brain sigma1 receptor to Ki for rat brain sigma2 receptor
[7] = Displacement of [3H]di-o-tolylguanidine from sigma2 receptor in rat brain after 120 mins by liquid scintillation counting analysis; assay type: tissue-based
[8] = Displacement of [3H]TCP from N-methyl D-aspartate receptor phencyclidine binding site in rat brain after 120 mins by liquid scintillation counting analysis; assay type: tissue-based
[9] = molecular target: Sigma non-opioid intracellular receptor 1 (Rattus norvegicus, UniProt Q9R0C9); assay: Displacement of [3H](+)-pentazocine from sigma1 receptor in rat brain after 120 mins by liquid scintillation counting analysis; assay type: tissue-based
Sequence of Sigma non-opioid intracellular receptor 1 (Q9R0C9 whole entry): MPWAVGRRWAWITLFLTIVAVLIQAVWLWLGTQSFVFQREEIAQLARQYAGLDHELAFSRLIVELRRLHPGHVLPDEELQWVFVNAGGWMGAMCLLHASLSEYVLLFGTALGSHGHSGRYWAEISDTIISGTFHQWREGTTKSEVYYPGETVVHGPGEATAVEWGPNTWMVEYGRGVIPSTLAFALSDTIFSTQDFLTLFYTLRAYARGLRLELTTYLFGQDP

[10] = molecular target: 5-hydroxytryptamine receptor 2A (Rattus norvegicus, UniProt P14842); assay: Displacement of [3H]ketanserin from 5-HT2 receptor in rat brain after 120 mins by liquid scintillation counting analysis; assay type: tissue-based
Sequence of 5-hydroxytryptamine receptor 2A (P14842 whole entry): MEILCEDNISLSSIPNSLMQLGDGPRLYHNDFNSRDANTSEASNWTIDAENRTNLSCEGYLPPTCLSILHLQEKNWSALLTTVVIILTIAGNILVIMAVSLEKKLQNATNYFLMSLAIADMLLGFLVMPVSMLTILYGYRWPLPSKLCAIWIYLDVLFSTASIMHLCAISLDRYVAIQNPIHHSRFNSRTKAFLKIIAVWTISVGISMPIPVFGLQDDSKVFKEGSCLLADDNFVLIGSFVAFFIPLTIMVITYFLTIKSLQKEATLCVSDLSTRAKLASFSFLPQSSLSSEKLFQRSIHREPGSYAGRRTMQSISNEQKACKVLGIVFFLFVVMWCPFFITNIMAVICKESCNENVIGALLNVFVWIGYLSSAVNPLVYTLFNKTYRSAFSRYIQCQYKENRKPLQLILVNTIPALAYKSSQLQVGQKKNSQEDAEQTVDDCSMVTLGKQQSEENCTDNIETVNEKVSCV

Sequence of D(2) dopamine receptor (P61169 whole entry): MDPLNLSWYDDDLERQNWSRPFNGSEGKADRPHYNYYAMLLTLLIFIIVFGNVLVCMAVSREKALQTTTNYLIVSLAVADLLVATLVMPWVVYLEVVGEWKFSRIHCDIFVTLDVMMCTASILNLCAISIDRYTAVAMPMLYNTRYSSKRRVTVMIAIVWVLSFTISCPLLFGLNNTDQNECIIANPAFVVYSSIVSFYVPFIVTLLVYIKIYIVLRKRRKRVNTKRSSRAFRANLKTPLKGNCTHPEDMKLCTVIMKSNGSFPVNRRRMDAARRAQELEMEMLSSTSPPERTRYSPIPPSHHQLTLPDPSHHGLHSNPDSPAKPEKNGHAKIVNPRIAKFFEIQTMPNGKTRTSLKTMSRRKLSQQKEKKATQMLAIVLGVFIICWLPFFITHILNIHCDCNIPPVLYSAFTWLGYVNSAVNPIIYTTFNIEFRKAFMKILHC

Compound: Clc1ccccc1N1CCN(CCCc2ccccc2)CC1
- Ki (D(2) dopamine receptor): 77 nM
- Ki [1]: 482 nM
- Ki [2]: > 10000 nM
- Ratio Ki (Rattus norvegicus [3]): 0.0012
- Ki [4]: 4600 nM
- Ki [5]: 409 nM
- Ratio Ki (Rattus norvegicus [6]): 0.072
- Ki [7]: 7.79 nM
- Ki [8]: > 10000 nM
- Ki [9]: 0.56 nM
- Ki [10]: 952 nM

Compound: Clc1ccccc1N1CCN(CCc2ccccc2)CC1
- Ki (D(2) dopamine receptor): 67 nM
- Ki [1]: 0.13 nM
- Ki [2]: 790 nM
- Ratio Ki (Rattus norvegicus [3]): 1.15
- Ki [4]: 4830 nM
- Ki [5]: > 10000 nM
- Ratio Ki (Rattus norvegicus [6]): 0.003
- Ki [7]: 56.3 nM
- Ki [8]: > 10000 nM
- Ki [9]: 0.15 nM
- Ki [10]: 484 nM

Compound: Clc1ccc(N2CCN(CCc3ccccc3)CC2)cc1
- Ki (D(2) dopamine receptor): 834 nM
- Ki [1]: 6 nM
- Ki [2]: > 10000 nM
- Ratio Ki (Rattus norvegicus [3]): 0.31
- Ki [4]: > 10000 nM
- Ki [5]: 372 nM
- Ratio Ki (Rattus norvegicus [6]): 0.056
- Ki [7]: 33.3 nM
- Ki [8]: > 10000 nM
- Ki [9]: 1.85 nM
- Ki [10]: 518 nM

Compound: Clc1ccc(N2CCN(CCCc3ccccc3)CC2)cc1
- Ki (D(2) dopamine receptor): 660 nM
- Ki [1]: 2650 nM
- Ki [2]: > 10000 nM
- Ratio Ki (Rattus norvegicus [3]): 4.5e-05
- Ki [4]: > 10000 nM
- Ki [5]: 1100 nM
- Ratio Ki (Rattus norvegicus [6]): 0.011
- Ki [7]: 10.9 nM
- Ki [8]: > 10000 nM
- Ki [9]: 0.12 nM
- Ki [10]: 391 nM

Compound: Clc1cccc(N2CCN(CCc3ccccc3)CC2)c1
- Ki (D(2) dopamine receptor): 327 nM
- Ki [1]: 0.04 nM
- Ki [2]: 1110 nM
- Ratio Ki (Rattus norvegicus [3]): 162
- Ki [4]: > 10000 nM
- Ki [5]: 802 nM
- Ratio Ki (Rattus norvegicus [6]): 0.079
- Ki [7]: 82.3 nM
- Ki [8]: > 10000 nM
- Ki [9]: 6.47 nM
- Ki [10]: 53 nM

Compound: Clc1cccc(N2CCN(CCCc3ccccc3)CC2)c1
- Ki (D(2) dopamine receptor): 128 nM
- Ki [1]: > 10000 nM
- Ki [2]: > 10000 nM
- Ki [4]: > 10000 nM
- Ki [5]: 488 nM
- Ratio Ki (Rattus norvegicus [6]): 0.39
- Ki [7]: 12.6 nM
- Ki [8]: > 10000 nM
- Ki [9]: 4.93 nM
- Ki [10]: 498 nM

Compound: c1ccc(CCCN2CCN(c3ccccn3)CC2)cc1
- Ki (D(2) dopamine receptor): 940 nM
- Ki [1]: 9150 nM
- Ki [2]: > 10000 nM
- Ratio Ki (Rattus norvegicus [3]): 0.009
- Ki [4]: > 10000 nM
- Ki [5]: > 10000 nM
- Ratio Ki (Rattus norvegicus [6]): 16.7
- Ki [7]: 4.9 nM
- Ki [8]: > 10000 nM
- Ki [10]: 1240 nM
